From patent US20250000858A1, “FGFR TYROSINE KINASE INHIBITORS FOR THE TREATMENT OF ADVANCED SOLID TUMORS” (JANSSEN PHARMACEUTICA NV, priority 2021, published 2025)
Like-named read-outs stand apart in the source and are kept apart here.

Assays:
[1] = Pharmacokinetic assessments (plasma concentrations, erdafitinib exposure; CYP2C9*3/*3 genotype); format: in vivo, human; conditions: subjects with the CYP2C9*3/*3 genotype; 'may increase'
Source text: Therefore, increased adverse reactions are monitored in subjects who are known or suspected to have CYP2C9*3/*3 genotype.

[2] = 144 treated BPC subjects (safety analysis set)
[3] = Broad Panel Cohort, 178 treated subjects, % of subjects, AE outcome of Fatal

Q: For `COc1cc(OC)cc(N(CCNC(C)C)c2ccc3ncc(-c4cnn(C)c4)nc3c2)c1` [erdafitinib, N-(3,5-dimethoxy-phenyl)-N′-(1-methylethyl)-N-[3-(1-methyl-1H-pyrazol-4-yl)quinoxalin-6-yl]ethane-1,2-diamine], which “increase of exposure of erdafitinib” value [1] is on record?
A: 50%

Q: And the “TEAEs leading to death” value (13 patients, BPC n=178, IA3)?
A: 7.3%

Q: And the “Drug-related serious TEAEs” value [2]?
A: 6.3%

Q: What about the “diarrhea (TEAE)” value [2] of the same compound?
A: 54.2%

Q: What about the “drug related TEAEs leading to death” value [2] of the same compound?
A: no drug related TEAEs leading to death

Q: And the “drug-related TEAEs leading to discontinuation” value [2]?
A: 3.5%

Q: What about the “hyperphosphatemia (TEAE)” value [2] of the same compound?
A: 65.3%

Q: And the “stomatitis (TEAE)” value [2]?
A: 49.3%

Q: What about the “TEAEs leading to death” value [3] of the same compound?
A: 13 (7.3%)

Q: And the “TEAEs leading to death: Drug-related” value [3]?
A: 1 (0.6%)
